According to patent US5990078A, “Means of increasing estrogen receptor levels in neural tissue” (The Trustees of Columbia University in the City of New York, priority 1996, dated 1999):
Entries after “also recorded” stand apart in the source; their conditions may differ.

Experiments:
estrogen receptor [1] = target: T1, estrogen receptor (Rattus norvegicus, UniProt P06211); experiment: Scatchard analysis of [3H]-moxestrol binding, P14 hypothalamus; set-up: endogenous in cells
T1 sequence (P06211 1-600): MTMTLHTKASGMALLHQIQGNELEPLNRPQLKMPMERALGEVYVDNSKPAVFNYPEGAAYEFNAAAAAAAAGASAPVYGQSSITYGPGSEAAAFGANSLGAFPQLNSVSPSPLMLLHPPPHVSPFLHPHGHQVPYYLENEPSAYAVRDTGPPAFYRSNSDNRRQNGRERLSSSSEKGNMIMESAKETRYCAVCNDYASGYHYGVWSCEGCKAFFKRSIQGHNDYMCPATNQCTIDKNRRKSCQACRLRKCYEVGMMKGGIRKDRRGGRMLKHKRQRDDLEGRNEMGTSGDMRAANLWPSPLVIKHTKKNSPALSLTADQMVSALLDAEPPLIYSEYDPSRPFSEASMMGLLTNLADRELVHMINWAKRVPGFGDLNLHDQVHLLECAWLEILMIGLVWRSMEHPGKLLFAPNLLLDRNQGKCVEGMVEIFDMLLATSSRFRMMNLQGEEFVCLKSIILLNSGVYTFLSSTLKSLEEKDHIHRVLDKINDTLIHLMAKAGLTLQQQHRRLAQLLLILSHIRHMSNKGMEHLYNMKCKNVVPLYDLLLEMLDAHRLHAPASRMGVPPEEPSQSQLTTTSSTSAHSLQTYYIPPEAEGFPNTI
Experimental: (§1) Nuclear receptor binding sites were identified using previously published protocols (Sohrabji et al., 1994a,b) and were standardized for this experiment using both MCF-7 cells and hypothalamic tissue. Cortical and basal forebrain cultures were maintained for 8 days in vitro. At the end of this period, cultures were incubated for 2 h at 34° C. with […] [^3 H]-moxestol (R2858; specific activity 80 Ci/mmol) in feed (phenol red free RPMI+10% gelded horse serum). The gelded horse serum had undetectable levels of estrogens, androgens, and progesterone (see tissue culture protocol), so that there were no endogenous steroids to compete with the nuclear binding of moxestrol. Control cultures were exposed to [^3 H]-moxestrol in the presence of an excess (2 mM) of unlabeled diethyl stilbestrol (DES), a synthetic estrogen. The radioligand-containing feed was then removed and the cultures washed and harvested for nuclear pellets by sucrose gradient density centrifugation at 4° C. Radioactivity was eluted from nuclear pellets with 95% ethanol (moxestrol is completely soluble in >50% ethanol) and the radioactivity counted in a liquid scintillation counter. […] Specific binding was determined as the difference between total binding and non-specific binding (in the presence of an unlabeled competing ligand) and the data expressed as femtomoles of specifically bound [^3 H] -moxestrol/mg DNA. […]

estrogen receptor [2] = target: T2, estrogen receptor (Homo sapiens, UniProt P03372); experiment: Scatchard analysis of [3H]-moxestrol binding, MCF7 cells
T2 construct: Scatchard analysis on sectioned hypothalamic tissue and MCF7 cells using this protocol; endogenous in cells; host or cells: MCF-7 cells
T2 sequence (P03372 1-595): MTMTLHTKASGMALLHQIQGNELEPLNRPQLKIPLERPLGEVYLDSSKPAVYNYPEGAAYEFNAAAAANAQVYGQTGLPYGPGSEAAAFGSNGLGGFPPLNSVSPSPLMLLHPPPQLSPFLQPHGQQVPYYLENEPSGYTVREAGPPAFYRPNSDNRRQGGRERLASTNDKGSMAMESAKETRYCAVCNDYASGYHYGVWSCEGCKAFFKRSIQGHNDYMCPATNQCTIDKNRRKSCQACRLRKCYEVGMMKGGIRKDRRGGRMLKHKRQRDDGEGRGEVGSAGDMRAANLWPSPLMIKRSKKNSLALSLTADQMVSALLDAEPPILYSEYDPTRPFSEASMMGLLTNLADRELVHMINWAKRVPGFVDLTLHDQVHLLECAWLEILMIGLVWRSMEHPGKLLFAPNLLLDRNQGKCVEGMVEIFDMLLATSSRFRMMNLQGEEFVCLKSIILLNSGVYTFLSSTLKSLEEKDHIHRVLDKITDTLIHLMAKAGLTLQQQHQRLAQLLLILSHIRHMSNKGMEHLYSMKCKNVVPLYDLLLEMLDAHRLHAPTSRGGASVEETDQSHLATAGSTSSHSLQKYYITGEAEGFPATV
Experimental: as §1

estrogen receptor [3] = target: T1, estrogen receptor; set-up: endogenous in cells; conditions: NGF-sensitive PC12 cells (Sohrabji et al., 1994a); cited from earlier work
p75^NGFR mRNA = experiment: Northern blot analysis of p75NGFR mRNA in PC12 cells; type: cell-based, rat; conditions: PC12 cells, NGF treatment
Experimental: PC12 cells were cultured on collagen-coated coverslips or tissue culture dishes in phenol red-free RPMI 1640 (Gibco BRL) nutrient medium supplemented with 10% (heat-inactivated) gelded (steroid-deficient) horse serum (JRH Biological), according to a modification of standard procedures. In these experiments, fetal calf serum, which contains physiologic levels of estrogen, (32 pg/ml) was not used.
Total RNA, prepared by a modification of the Chomczynski and Sacchi method, was size-fractionated (10-20 μg/lane) on a 1.2% agarose-18% formaldehyde gel and capillary-transferred to nylon membrane (Hybond-N; Amersham). Filters were prehybridized (4-18 h) and hybridized (36-40 h) at 42° C. in 50% Formamide, 3× SSC, 0.1M Tris, 5× Denhardt's and 10% Dextran Sulfate. Probes were labeled with [α-^32 P]-dCTP by the random priming procedure (Random Priming kit, Boehringer Mannheim). trkA mRNA was identified by hybridization with pDM97, a 450 bp trkA-specific probe corresponding to the extracellular and transmembrane domains of the trkA gene [67; gift of L. F. Parada, NCI-FCRDC]. p75^NGFR was probed by hybridization with p5b, a 2 Kb probe corresponding to the extracellular domain of the p75^NGFR gene. Blots were washed first in 0.2×SSC and 0.5% SDS briefly at room temperature and then for 2 h at 60° C., with frequent changes of wash buffer. Filters were then exposed to film (Kodak X-Omat) between intensifying screens and stored at -70° C. for 1-4 days before developing.
Using a standard densitometry package (Jandel Scientific), optical density measurements were obtained from X-ray film. trkA and p75^NGFR transcript densities were normalized to an internal control to account for variation in the amount of RNA loaded.
Total RNA was analyzed by Northern blot analyses, using ^32 P-labeled cDNA probes for trkA and p75^NGFR.

PC12-E2 cells = experiment: Morphological study of neurite growth in PC12-E2 cells; type: cell-based
From the text: It has been previously reported that wild-type, differentiated PC12 pheochromocytoma cells express very low levels of estrogen receptors. Here it is reported that a PC12 cell variant, PC12-E2 (Wu, Bradshaw, J. Cell Physiol. 164:1995), is estrogen responsive and expresses high estrogen receptor level (≈50% of the levels observed in estrogen receptor over-expressing MCF-7 cells). Moreover, although tyrosine phosphorylation of the estrogen receptor appeared to be expressed constitutively, these cells responded to added estrogen. PC12-E2 responsiveness to estrogen was determined morphologically and by measuring estradiol-induced ERK activation. […] Preliminary co-precipitation experiments show an association between src and estrogen receptor, src with MEK (MAP Kinase/ERK-activating Kinase), and MEK with B-raf, MEK, which phosphorylates the ERKs on tyrosine residues, is known to exist as a complex consisting of at least hsp90 and B-raf.

estrogen receptor [4] = target: T1, estrogen receptor; experiment: Nuclear exchange assay: specific nuclear estrogen binding in PC12 cells; type: cell-based; set-up: endogenous in cells; conditions: for Nuclear estrogen binding after 4 days of NGF treatment: 4 days NGF
Experimental: In these experiments, fetal calf serum, which contains physiologic levels of estrogen, (32 pg/ml) was not used.
Estrogen binding was estimated by a modification of the nuclear exchange assay. […] Groups receiving estrogen were deprived of the steroid 24 h prior to the assay. […] Tubes were then centrifuged briefly (5 mins, 14000 g) to recover a pellet and washed (3×) in the same buffer, excluding Triton X. Since the estrogen receptor is a nuclear receptor, in some experiments a sucrose gradient protocol was employed to ensure a clean nuclear pellet. […] This mixture was then carefully layered over a buffer containing 1.8 M sucrose and centrifuged for 90 mins, at 15,000 g at 4° C., and the nuclear pellet recovered from the bottom of the tube. […] Specific binding was determined as the difference between total binding and non-specific binding (in the presence of an unlabeled competing ligand). […] Group differences were evaluated using one way analysis of variance with Student-Newman-Keuls test of planned post-hoc comparisons. Differences were considered significant at the 0.05 level.
A modification of the nuclear exchange assay was used to determine the presence of estrogen binding sites in nuclear pellets of PC12 cells.

estrogen receptor mRNA = experiment: In situ hybridization for estrogen receptor mRNA in PC12 cells; type: cell-based, rat; conditions: NGF-treated (14 days, >2 weeks)
From the text: Estrogen receptor mRNA was identified using a previously described unique 48-base oligonucleotide sequence, identical to a region within the ligand-binding domain of the rat uterine estrogen receptor [51] and with less than 25% homology with the other members of the steroid receptor superfamily of DNA binding proteins. The probes were 3' end-labeled with digoxigenin-deoxyuridine-triphosphate using terminal deoxynucleotidyl transferase (BRL).
In situ hybridization histochemistry for the estrogen receptor was performed according to the procedure described in Miranda and Toran-Allerand [71]. Briefly, paraformaldehyde-fixed cultures were hybridized with digoxigenin-labeled oligonucleotide for 16-18 hours, washed extensively and later incubated with antidigoxigenin antibody conjugated to alkaline phosphatase (Boehringer Mannheim). RNA-oligonucleotide hybrids were visualized with a blue color reaction (nitroblue tetrazolium salt/5-bromo-4-chloro-3-indolyl-phosphate) catalyzed by antibody-conjugated alkaline-phosphatase. Color reaction was terminated for all groups when color appeared fully developed in one condition. Coverslips were dehydrated briefly, cleared in Histoclear (National Diagnostics) and coverslipped in Permount. […]

estrogen receptor [5] = experiment: Tyrosine phosphorylation of the estrogen receptor, cortical explants; type: cell-based
Experimental: Estrogen and the neurotrophins have important roles in the developing and adult central nervous system (CNS). […] The hypothesis that estrogen/neurotrophin receptor co-expression leads to reciprocal regulation at the level of signal transduction, through cross-coupling of converging estrogen and neurotrophin signaling pathways whose end-points in the nucleus may be the very same genes was tested. Postnatal day 2 cerebral cortex was maintained as organotypic explants in roller tube culture for 7 days.

[6] = read-out: Dissociation constant (Kd)

## C#C[C@]1(O)CC[C@H]2[C@@H]3CCc4cc(O)ccc4[C@H]3[C@@H](OC)C[C@@]21C [[^3 H]-moxestrol, 11β-methoxy-[^3 H]-moxestrol]
Estrogen receptor [1]
  Maximal binding (Bmas): 310 fmol/mg DNA
Estrogen receptor [1]; [6]
  Kd: 0.86 nM
Estrogen receptor [2]
  Maximal binding (Bmas): 1800-2500 fmol/mg DNA
Estrogen receptor [2]; [6]
  Kd: 0.7 to 0.78 nM

## NGF: nerve growth factor, member of the neurotrophin family of growth factors
Estrogen receptor [3]
  Increase in estrogen binding sites: sixfold
p75^NGFR mRNA
  p75NGFR mRNA vs untreated controls: increase
PC12-E2 cells
  Neurite outgrowth: extensive and rapid
  Time to induction of neurite outgrowth: ≤ 24 h
Estrogen receptor [4]; NGF for 3 weeks (21 days)
  Increase in specific nuclear estrogen binding vs naive (untreated) cells: sixfold
Estrogen receptor [4]; time course, 1 day NGF
  Nuclear estrogen binding after 1 day of NGF exposure: No increase was observed
Estrogen receptor [4]; time course
  Nuclear estrogen binding after 4 days of NGF treatment: noticeable elevation; also recorded: increase in estrogen binding is present as early as 4 days
Estrogen receptor [4]; time course, listed as nerve growth factor
  Nuclear estrogen binding after 4 days of NGF treatment: double
Estrogen receptor mRNA
  Hybridization to estrogen receptor probe: strongly hybridize
Estrogen receptor [5]
  Tyrosine phosphorylation of the estrogen receptor: induced tyrosine phosphorylation

## NT-3: neurotrophin-3
Estrogen receptor [5]
  Tyrosine phosphorylation of the estrogen receptor: not

B1: NT-4/5: neurotrophin-4/5 (protein, UniProt P34130 81-210, looked up)
Neurotrophin-4: GVSETAPASRRGELAVCDAVSGWVTDRRTAVDLRGREVEVLGEVPAAGGSPLRQYFFETRCKADNAEEGGPGAGGGGCRGVDRRHWVSECKAKQSYVRALTADAQGRVGWRWIRIDTACVCTLLSRTGRA
Estrogen receptor [5]
  Tyrosine phosphorylation of the estrogen receptor: induced tyrosine phosphorylation

B2: BDNF: brain-derived neurotrophic factor, a neurotrophin (protein, UniProt P23560 19-247, looked up)
Neurotrophic factor BDNF …: APMKEANIRGQGGLAYPGVRTHGTLESVNGPKAGSRGLTSLADTFEHVIEELLDEDQKVRPNEENNKDADLYTSRVMLSSQVPLEPPLLFLLEEYKNYLDAANMSMRVRRHSDPARRGELSVCDSISEWVTAADKKTAVDMSGGTVTVLEKVPVSKGQLKQYFYETKCNPMGYTKEGCRGIDKRHWNSQCRTTQSYVRALTMDSKKRIGWRFIRIDTSCVCTLTIKRGR
Estrogen receptor [5]
  Tyrosine phosphorylation of the estrogen receptor: induced tyrosine phosphorylation
